Activity calls are given as the source filed them. The calls are words filed in the database; no cut-off is given here.
Tests used:
HepG2 [1] = assay: Cytotoxicity against human HepG2 cells assessed as cell viability at 10 uM measured after 24 hrs by MTT assay; assay type: cell-based; conditions: hepg2, 24 h
HepG2 [2] = assay: Hypolipidemic activity in human HepG2 cells assessed as inhibition of oleic acid-BSA induced triglyceride accumulation at 10 uM after 24 hrs; assay type: functional, cell-based
HepG2 [3] = assay: Hypolipidemic activity in human HepG2 cells assessed as inhibition of oleic acid-BSA induced intracellular lipid accumulation at 10 uM after 24 hrs by Oil Red O staining based microscopic assay; assay type: functional, cell-based

SMILES | Activity (HepG2 [1]) | Activity (HepG2 [2]) | inhibition (HepG2 [3])
C[C@@]12CCC[C@@](C)(C1)c1ccc(C(=O)O)cc1O2 | Non-Toxic |  | 
C[C@]12CCC[C@](C)(C1)c1ccc(C(=O)O)cc1O2 | Non-Toxic |  | 
COC(=O)c1ccc2c(c1)O[C@]1(C)CCC[C@@]2(C)C1 | Non-Toxic |  | 
COC(=O)c1ccc2c(c1)OC(C)(C)[C@@H]1CC[C@]21C | Non-Toxic | Active | Active

— ChEMBL document CHEMBL4840345, “Penispidins A-C, Aromatic Sesquiterpenoids from Penicillium virgatum and Their Inhibitory Effects on Hepatic Lipid Accumulation” (J Nat Prod, 2021)
